One experiment deals with CDK2/Cyclin E2 (Homo sapiens, UniProt P24941). In words: CDK2/CyclinE2 enzymatic activity assay (TR-FRET). The conditions noted are these: ATP 1 mM final, read-out: CDK2_E1 IC50. It is filed as biochemical. How it is done:
CDK2/CyclinE2 Enzymatic Activity Assay
(§1) The inhibitory activity of compounds was evaluated in vitro using TR-FRET assay with white 384-well low volume microplate (Greiner Bio-One). CDK2/Cyclin E2 catalyzed phosphorylation of peptide in the presence and absence of compounds was measured and used in IC50 determination. Recombinant protein complex CDK2/Cyclin E2, expressed from insect cell, was purchased from ProQinase. Testing compounds were dissolved in DMSO at 1 mM and tested in 9-dose IC50 mode. The reaction mixture was prepared by mixing CDK2/CyclinE2 (1 nM final), ULight-4E-BP1 (50 nM final, Perkinelmer, TRF0128-D), and ATP (1 mM final) in assay buffer (20 mM of HEPES pH 7.4, 1 mM of EGTA, 0.05% BSA, 0.005% Tween 20, and 1 mM TCEP). The compound of interest in DMSO was added to each well in 3-fold serial dilution by dispenser (TECAN D300E) to make a 9.9 μL of reaction mixture. After 20 minutes preincubation at room temperature, 0.1 μL MgCl2 (10 mM final) was added to initiate the reaction. Following a 45 minute incubation at 37° C., the reaction was stopped by addition of 2 μL of quenching buffer consisting of Lance detection buffer (Perkinelmer CR97-100C), LANCE Ultra Europium-anti-P-4E-BP1 (Perkinelmer, TRF0216-D), EDTA, and incubate at room temperature for an additional 60 minutes in the dark. The reaction signal was measured by Envision multimode plate reader (PerkinElmer, 2102-0010). IC50 values were determined by fitting the data to the standard 4 parameters with Hill Slope using GraphPad Prism software.
(TR-FRET usually uses a lanthanide donor and a delayed reading to cut background.)

The target in the next experiment is T1, CDK4/Cyclin D1 (Homo sapiens, UniProt P11802).
T1 construct: purchased ProQinase; host or cells: insect cell
T1 sequence (P11802 whole entry): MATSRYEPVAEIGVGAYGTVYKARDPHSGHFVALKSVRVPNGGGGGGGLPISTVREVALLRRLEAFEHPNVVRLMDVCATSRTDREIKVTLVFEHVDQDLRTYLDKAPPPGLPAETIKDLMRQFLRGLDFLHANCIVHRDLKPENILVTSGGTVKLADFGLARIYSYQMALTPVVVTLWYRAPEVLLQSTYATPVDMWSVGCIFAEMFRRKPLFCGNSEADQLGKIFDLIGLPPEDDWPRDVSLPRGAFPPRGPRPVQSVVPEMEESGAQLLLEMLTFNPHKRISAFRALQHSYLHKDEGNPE
T1 sequence (P24385 whole entry partner): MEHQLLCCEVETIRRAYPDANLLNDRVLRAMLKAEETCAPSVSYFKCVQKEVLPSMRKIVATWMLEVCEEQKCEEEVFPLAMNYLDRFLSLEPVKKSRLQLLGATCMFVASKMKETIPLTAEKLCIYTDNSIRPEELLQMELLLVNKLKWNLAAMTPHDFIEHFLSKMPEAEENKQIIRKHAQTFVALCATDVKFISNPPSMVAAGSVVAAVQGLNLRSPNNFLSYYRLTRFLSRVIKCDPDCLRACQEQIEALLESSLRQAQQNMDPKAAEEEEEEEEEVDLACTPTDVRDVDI
In words: CDK4/CyclinD1 enzymatic activity assay (TR-FRET). The conditions noted are these: ATP 2 mM final, read-out: CDK4_D1 IC50. It counts as biochemical. How it is done: CDK4/CyclinD1 Enzymatic Activity Assay
as §1, with “Bio-One). CDK4/Cyclin D1” for “Bio-One). CDK2/Cyclin E2”, “in IC5” for “in IC50”, “complex CDK4/Cyclin D1,” for “complex CDK2/Cyclin E2,”, “mixing CDK4/CyclinD1” for “mixing CDK2/CyclinE2”, “ULight-4E-BP1 (100” for “ULight-4E-BP1 (50”, “ATP (2” for “ATP (1”

Another experiment has as its system OVCAR3 p-RB. In words: pRB ICW assay in OVCAR3 cells. It is filed as cell-based. As to conditions: Homo sapiens, OVCAR-3, incubated with compound for 2 hours. How it is done:
pRB ICW Assay in OVCAR3 Cells
OVCAR3 cells were maintained in RPMI (Corning, Catalog #: 10-040-CV) supplemented with 10% v/v FBS (Gibco, Catalog #: 26140-079), 1% v/v Penicillin Streptomycin (Gibco, Catalog #15140-122.) OVCAR3 cells grown at log phase were trypsinized, counted, and resuspended in fresh medium to reach a final density of 6.7e4 cells/mL and 75 μL of culture were dispensed into a 384-well plate (Falcon, cat #353962) using Multidrop Combi dispenser (Thermo Scientific). The next day, compounds were dispensed as a 9-point, ½ log serial dilution using a Tecan digital dispenser (D300e), and cells were incubated with compound for 2 hours in a humidified incubator at 37° C. A reference compound at a final concentration of 10 μM was used as a control for maximum inhibition. Each compound was tested in duplicates in each experiment. At the end of the incubation, 25 μL of 16% paraformaldehyde (Electron Microscopy, cat #15710) was slowly added to each well and the plate was incubated at room temperature (RT) for 30 minutes to fix cells. Cells were then permeabilized by incubating with 50 μL/well of wash buffer (lx PBS with 0.1% Triton X-100) 5×5 minutes, followed by 1 hour blocking with 30 μL/well of Odyssey blocking buffer (Li-COR, cat #927-40000), all at RT. Anti-phosphor RB antibody (Cell signaling 8516S) was diluted 1:1000 in Odyssey blocking buffer and 20 μL was added to all wells and incubated overnight in 4° C. with gently rocking. The next day, cells were washed 5×5 min with 50 μL/well of wash buffer, followed with 1 hour incubation with secondary antibody and DRAQ5 diluted in Odyssey blocking buffer (1:500 dilution for secondary antibody and 1:2000 dilution for DRAQ5), 5×5 min washes, and one last wash with water. Plates were dried in 37° C. oven for 5 min and scanned using Li-COR Odyssey CLx imaging system to acquire intensities at 700 and 800 nm channels.

As for `CC(C)Oc1ncc(-c2nc(NC3CCN(S(C)(=O)=O)CC3)ncc2C(F)(F)F)s1` [Example 25, N-(1-Methylsulfonylpiperidin-4-yl)-4-(2-propan-2-yloxy-1,3-thiazol-5-yl)-5-(trifluoromethyl)pyrimidin-2-amine], the figures for the IC50 at CDK2/Cyclin E2, on CDK4/Cyclin D1 and in the experiment with OVCAR3 p-RB were not above 100 nM, not above 100 nM and 100 to 1000 nM, respectively.

With `CS(=O)(=O)N1CCC(Nc2ncc(C(F)(F)F)c(-c3cnc(Cl)s3)n2)CC1` [Example 26, 4-(2-chlorothiazol-5-yl)-N-(1-(methylsulfonyl)piperidin-4-yl)-5-(trifluoromethyl) pyrimidin-2-amine], the values for the IC50 on CDK2/Cyclin E2, at CDK4/Cyclin D1 and in the experiment with OVCAR3 p-RB were not above 100 nM, 100 to 1000 nM and 100 to 1000 nM, respectively.

Consider `CS(=O)(=O)N1CCC(Nc2ncc(C(F)(F)F)c(-c3cnc(OC4CCCC4)s3)n2)CC1` [Example 27, 4-(2-(cyclopentyloxy)thiazol-5-yl)-N-(1-(methylsulfonyl)piperidin-4-yl)-5-(trifluoromethyl)pyrimidin-2-amine], for which the figures for the IC50 at CDK2/Cyclin E2, at CDK4/Cyclin D1 and in the experiment on OVCAR3 p-RB were not above 100 nM, not above 100 nM and more than 1000 nM, respectively.

Consider `CNc1ncc(-c2nc(NC3CCN(S(C)(=O)=O)CC3)ncc2C(F)(F)F)s1` [Example 28, N-methyl-5-[2-[(1-methylsulfonylpiperidin-4-yl)amino]-5-(trifluoromethyl)pyrimidin-4-yl]-1,3-thiazol-2-amine], for which the IC50 at CDK2/Cyclin E2, on CDK4/Cyclin D1 and with OVCAR3 p-RB was not above 100 nM throughout.

As to `CN(C)c1ncc(-c2nc(NC3CCN(S(C)(=O)=O)CC3)ncc2C(F)(F)F)s1` [Example 29, N,N-dimethyl-5-[2-[(1-methylsulfonylpiperidin-4-yl)amino]-5-(trifluoromethyl)pyrimidin-4-yl]-1,3-thiazol-2-amine], the results for the IC50 on CDK2/Cyclin E2, on CDK4/Cyclin D1 and with OVCAR3 p-RB were not above 100 nM, not above 100 nM and 100 to 1000 nM, respectively.

Consider `CC(O)C(C)Nc1ncc(-c2nc(NC3CCN(S(C)(=O)=O)CC3)ncc2C(F)(F)F)s1` (stereo not drawn) [Example 30, 3-[[5-[2-[(1-methylsulfonylpiperidin-4-yl)amino]-5-(trifluoromethyl)pyrimidin-4-yl]-1,3-thiazol-2-yl]amino]butan-2-ol], for which the IC50 at CDK2/Cyclin E2, on CDK4/Cyclin D1 and with OVCAR3 p-RB was not above 100 nM in each case.

Take `CS(=O)(=O)N1CCC(Nc2ncc(C(F)(F)F)c(-c3cnc(NCCO)s3)n2)CC1` [Example 31, 2-[[5-[2-[(1-methylsulfonylpiperidin-4-yl)amino]-5-(trifluoromethyl)pyrimidin-4-yl]-1,3-thiazol-2-yl]amino]ethanol]: the values for the IC50 at CDK2/Cyclin E2, at CDK4/Cyclin D1 and with OVCAR3 p-RB were not above 100 nM, not above 100 nM and 100 to 1000 nM, respectively.

With `CCNc1ncc(-c2nc(NC3CCN(S(C)(=O)=O)CC3)ncc2C(F)(F)F)s1` [Example 32, N-ethyl-5-[2-[(1-methylsulfonylpiperidin-4-yl)amino]-5-(trifluoromethyl)pyrimidin-4-yl]-1,3-thiazol-2-amine], the IC50 (commonly the concentration that gives 50% inhibition) at CDK2/Cyclin E2 was not above 100 nM; at CDK4/Cyclin D1, not above 100 nM; in the experiment with OVCAR3 p-RB, 100 to 1000 nM.

With `CN(c1ncc(-c2nc(NC3CCN(S(C)(=O)=O)CC3)ncc2C(F)(F)F)s1)C1CCCC1` [Example 33, N-cyclopentyl-N-methyl-5-(2-((1-(methylsulfonyl)piperidin-4-yl)amino)-5-(trifluoromethyl)pyrimidin-4-yl)thiazol-2-amine], the half-inhibitory concentration (IC50) was not above 100 nM at CDK2/Cyclin E2, not above 100 nM on CDK4/Cyclin D1 and more than 1000 nM in the experiment with OVCAR3 p-RB.

As to `CN(c1ncc(-c2nc(NC3CCN(S(C)(=O)=O)CC3)ncc2C(F)(F)F)s1)[C@@H]1CCC[C@H]1O` [Example 34, (1R,2R)-2-(methyl(5-(2-((1-(methylsulfonyl)piperidin-4-yl)amino)-5-(trifluoromethyl)pyrimidin-4-yl)thiazol-2-yl)amino)cyclopentan-1-ol], the values for the IC50 on CDK2/Cyclin E2, on CDK4/Cyclin D1 and in the experiment on OVCAR3 p-RB were not above 100 nM, not above 100 nM and 100 to 1000 nM, respectively.

Regarding `CN(CCO)c1ncc(-c2nc(NC3CCN(S(C)(=O)=O)CC3)ncc2C(F)(F)F)s1` [Example 35, 2-(methyl(5-(2-((1-(methylsulfonyl)piperidin-4-yl)amino)-5-(trifluoromethyl)pyrimidin-4-yl)thiazol-2-yl)amino)ethan-1-ol], the figures for the 50% inhibitory concentration (IC50) on CDK2/Cyclin E2, on CDK4/Cyclin D1 and in the experiment on OVCAR3 p-RB were not above 100 nM, not above 100 nM and 100 to 1000 nM, respectively.

Turning to `CS(=O)(=O)N1CCC(Nc2ncc(C(F)(F)F)c(-c3cnc(NC4CC4)s3)n2)CC1` [Example 36, N-Cyclopropyl-5-[2-[(1-methylsulfonylpiperidin-4-yl)amino]-5-(trifluoromethyl)pyrimidin-4-yl]-1,3-thiazol-2-amine], the values for the half-inhibitory concentration (IC50) on CDK2/Cyclin E2, at CDK4/Cyclin D1 and in the experiment with OVCAR3 p-RB were not above 100 nM, not above 100 nM and 100 to 1000 nM, respectively.

For `C[C@@]1(O)CCC[C@H]1Nc1ncc(-c2nc(NC3CCN(S(C)(=O)=O)CC3)ncc2C(F)(F)F)s1` [Example 37, (1R,2R)-1-Methyl-2-[[5-[2-[(1-methylsulfonylpiperidin-4-yl)amino]-5-(trifluoromethyl)pyrimidin-4-yl]-1,3-thiazol-2-yl]amino]cyclopentan-1-ol], the concentration for half-maximal inhibition (IC50) at CDK2/Cyclin E2 was not above 100 nM; on CDK4/Cyclin D1, not above 100 nM; in the experiment with OVCAR3 p-RB it was 100 to 1000 nM.

In the case of `CS(=O)(=O)N1CCC(Nc2ncc(C(F)(F)F)c(-c3cnc(NC4COC4)s3)n2)CC1` [Example 38, 5-[2-[(1-Methylsulfonylpiperidin-4-yl)amino]-5-(trifluoromethyl)pyrimidin-4-yl]-N-(oxetan-3-yl)-1,3-thiazol-2-amine], the concentration for half-maximal inhibition (IC50) on CDK2/Cyclin E2 is not above 100 nM; on CDK4/Cyclin D1, not above 100 nM; in the experiment on OVCAR3 p-RB, 100 to 1000 nM.

For the molecule `[2H]C([2H])([2H])Nc1ncc(-c2nc(NC3CCN(S(C)(=O)=O)CC3)ncc2C(F)(F)F)s1` [Example 39, 5-[2-[(1-Methylsulfonylpiperidin-4-yl)amino]-5-(trifluoromethyl)pyrimidin-4-yl]-N-(trideuteriomethyl)-1,3-thiazol-2-amine], the IC50 is not above 100 nM on CDK2/Cyclin E2, not above 100 nM at CDK4/Cyclin D1 and 100 to 1000 nM in the experiment on OVCAR3 p-RB.

As to `CS(=O)(=O)N1CCC(Nc2ncc(C(F)(F)F)c(-c3cnc(NCCF)s3)n2)CC1` [Example 40, N-(2-Fluoroethyl)-5-[2-[(1-methylsulfonylpiperidin-4-yl)amino]-5-(trifluoromethyl)pyrimidin-4-yl]-1,3-thiazol-2-amine], the concentration for half-maximal inhibition (IC50) at CDK2/Cyclin E2 was not above 100 nM; on CDK4/Cyclin D1, not above 100 nM; in the experiment on OVCAR3 p-RB it was 100 to 1000 nM.

The values are drawn from US20240018136A1, “CDK Inhibitors And Their Use As Pharmaceuticals” (Prelude Therapeutics, Incorporated, priority 2022, published 2024).
